Calls of active or inactive are those of the source. The rule behind the calls is not given here.
How the values were obtained:
Acetylcholinesterase [1] = biological target: T1, Acetylcholinesterase (Homo sapiens, UniProt P22303); test: Inhibition of human AChE
[2] = Antagonist activity at NMDA receptor (unknown origin); parameters: species or system Homo sapiens
Acetylcholinesterase [3] = biological target: T1, Acetylcholinesterase; test: Inhibition of AChE (unknown origin)
Acetylcholinesterase [4] = biological target: T2, Acetylcholinesterase (Electrophorus electricus, UniProt O42275); test: Inhibition of electric eel AChE using acetylthiocholine iodide as substrate preincubated with enzyme for 10 mins followed by substrate addition and measured every 1 min for 20 mins by spectrophotometric analysis
T2 sequence (O42275 whole entry): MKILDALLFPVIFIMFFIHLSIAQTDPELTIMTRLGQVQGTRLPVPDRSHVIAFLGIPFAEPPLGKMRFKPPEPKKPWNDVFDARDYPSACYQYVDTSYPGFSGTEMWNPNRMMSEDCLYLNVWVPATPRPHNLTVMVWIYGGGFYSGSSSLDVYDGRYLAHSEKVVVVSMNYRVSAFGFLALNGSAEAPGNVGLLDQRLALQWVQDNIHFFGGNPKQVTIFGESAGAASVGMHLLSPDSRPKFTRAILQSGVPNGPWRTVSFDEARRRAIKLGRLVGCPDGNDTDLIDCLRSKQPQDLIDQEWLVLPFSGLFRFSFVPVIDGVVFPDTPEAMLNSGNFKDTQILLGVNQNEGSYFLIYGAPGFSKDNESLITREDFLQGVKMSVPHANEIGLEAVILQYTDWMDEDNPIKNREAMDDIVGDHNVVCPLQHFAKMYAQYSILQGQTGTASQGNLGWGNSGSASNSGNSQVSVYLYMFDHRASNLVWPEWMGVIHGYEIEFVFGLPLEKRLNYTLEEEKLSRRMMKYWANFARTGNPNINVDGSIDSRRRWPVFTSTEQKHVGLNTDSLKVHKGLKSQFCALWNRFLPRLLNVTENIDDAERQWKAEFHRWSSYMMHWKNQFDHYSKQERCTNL

Cholinesterase = Cholinesterase (Equus caballus, UniProt P81908); test: Inhibition of equine serum BuChE using butyrylthiocholine iodide as substrate preincubated with enzyme for 10 mins followed by substrate addition and measured every 1 min for 20 mins by spectrophotometric analysis
Cholinesterase, sequence (P81908 whole entry): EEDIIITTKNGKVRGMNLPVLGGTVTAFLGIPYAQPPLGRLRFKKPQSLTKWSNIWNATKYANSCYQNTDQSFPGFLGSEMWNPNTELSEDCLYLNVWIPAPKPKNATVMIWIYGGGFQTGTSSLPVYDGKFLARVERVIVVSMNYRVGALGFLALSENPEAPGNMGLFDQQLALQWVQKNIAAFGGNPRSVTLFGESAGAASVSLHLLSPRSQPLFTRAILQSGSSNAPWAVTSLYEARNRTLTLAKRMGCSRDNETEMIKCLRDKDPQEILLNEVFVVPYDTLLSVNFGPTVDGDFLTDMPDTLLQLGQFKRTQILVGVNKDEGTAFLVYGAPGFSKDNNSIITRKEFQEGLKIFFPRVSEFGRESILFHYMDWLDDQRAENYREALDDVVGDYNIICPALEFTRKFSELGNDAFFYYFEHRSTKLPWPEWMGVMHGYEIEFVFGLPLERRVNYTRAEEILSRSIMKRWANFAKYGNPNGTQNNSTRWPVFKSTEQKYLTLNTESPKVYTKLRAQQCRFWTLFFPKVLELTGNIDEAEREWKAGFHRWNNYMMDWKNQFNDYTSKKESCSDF

[5] = Selectivity index, ratio of IC50 for equine serum BuChE to IC50 for electric eel AChE
[6] = Antagonist activity at GluN1-1a/GluN2B (unknown origin) expressed in xenopus laevis oocytes assessed as inhibition of glycine/glutamate-induced channel current incubated for 20s measured at holding potential of -70 mV by two-electrode voltage clamp technique; assay type: cell-based, Homo sapiens; settings: Oocyte
in vitro = settings: PAMPA
Description: Permeability of the compound at 25 ug/ml incubated or 18 hrs by PAMPA-BBB assay

[7] = Antagonist activity at GluN1-1a/GluN2A (unknown origin) expressed in xenopus laevis oocytes assessed as inhibition of glycine/glutamate-induced channel current incubated for 20s measured at holding potential of -70 mV by two-electrode voltage clamp technique; assay type: cell-based; settings: Homo sapiens, Oocyte
[8] = Antagonist activity at GluN1-1b/GluN2A (unknown origin) expressed in xenopus laevis oocytes assessed as inhibition of glycine/glutamate-induced channel current incubated for 20s measured at holding potential of -70 mV by two-electrode voltage clamp technique; assay type: cell-based; settings: Homo sapiens, Oocyte
[9] = Antagonist activity at GluN1-1b/GluN2B (unknown origin) expressed in xenopus laevis oocytes assessed as inhibition of glycine/glutamate-induced channel current incubated for 20s measured at holding potential of -70 mV by two-electrode voltage clamp technique; assay type: cell-based; settings: Homo sapiens, Oocyte
[10] = Antagonist activity at GluN1-1a/GluN2C (unknown origin) expressed in xenopus laevis oocytes assessed as inhibition of glycine/glutamate-induced channel current incubated for 20s measured at holding potential of -70 mV by two-electrode voltage clamp technique; assay type: cell-based; settings: Homo sapiens, Oocyte
[11] = Antagonist activity at GluN1-1b/GluN2C (unknown origin) expressed in xenopus laevis oocytes assessed as inhibition of glycine/glutamate-induced channel current incubated for 20s measured at holding potential of -70 mV by two-electrode voltage clamp technique; assay type: cell-based; settings: Homo sapiens, Oocyte
[12] = Antagonist activity at GluN1-1a/GluN2D (unknown origin) expressed in xenopus laevis oocytes assessed as inhibition of glycine/glutamate-induced channel current incubated for 20s measured at holding potential of -70 mV by two-electrode voltage clamp technique; assay type: cell-based; settings: Homo sapiens, Oocyte
[13] = Antagonist activity at GluN1-1b/GluN2D (unknown origin) expressed in xenopus laevis oocytes assessed as inhibition of glycine/glutamate-induced channel current incubated for 20s measured at holding potential of -70 mV by two-electrode voltage clamp technique; assay type: cell-based; settings: Homo sapiens, Oocyte
HEK-293T [14] = test: Cytotoxicity against HEK293T cells assessed as reduction in cell viability at 0.3 to 100 uM measured after 44 hrs by WST-1 assay; assay type: toxicity, cell-based; settings: human, dose 0.3-100 µM
Acetylcholinesterase [15] = biological target: T2, Acetylcholinesterase; test: Non-competitive inhibition of electric eel AChE by Dixon plot analysis
[16] = biological target: Amyloid-beta precursor protein (Homo sapiens) (UniProt P05067); test: Inhibition of self-induced Amyloid beta (1 to 42 residues) (unknown origin) aggregation at Abeta(1 to 42) to compound concentration ratio of 10:5 to 10:20 uM incubated for 48 hrs by ThT fluorescence method
Amyloid-beta precursor protein (Homo sapiens), sequence (P05067 whole entry, the tested form may be a part): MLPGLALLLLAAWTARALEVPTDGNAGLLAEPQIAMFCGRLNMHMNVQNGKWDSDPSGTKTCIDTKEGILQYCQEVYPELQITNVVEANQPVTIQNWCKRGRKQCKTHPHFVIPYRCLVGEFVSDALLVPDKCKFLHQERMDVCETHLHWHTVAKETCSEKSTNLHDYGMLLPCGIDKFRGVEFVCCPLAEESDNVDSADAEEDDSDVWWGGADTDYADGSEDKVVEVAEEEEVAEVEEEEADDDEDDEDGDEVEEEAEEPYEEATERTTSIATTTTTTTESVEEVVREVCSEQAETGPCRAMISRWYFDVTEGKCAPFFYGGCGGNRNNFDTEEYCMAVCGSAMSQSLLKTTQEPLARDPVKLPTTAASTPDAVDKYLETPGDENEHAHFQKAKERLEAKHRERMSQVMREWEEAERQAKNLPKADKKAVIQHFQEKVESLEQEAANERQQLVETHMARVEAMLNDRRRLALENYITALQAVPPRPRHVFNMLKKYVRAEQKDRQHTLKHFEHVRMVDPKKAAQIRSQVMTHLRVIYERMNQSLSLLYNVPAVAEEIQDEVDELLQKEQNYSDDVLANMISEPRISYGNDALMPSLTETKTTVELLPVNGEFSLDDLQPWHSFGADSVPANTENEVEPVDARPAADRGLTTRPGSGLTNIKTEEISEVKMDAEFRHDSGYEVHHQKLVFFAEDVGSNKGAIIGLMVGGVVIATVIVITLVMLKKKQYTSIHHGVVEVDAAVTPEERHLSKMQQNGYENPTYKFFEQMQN

[17] = biological target: Amyloid-beta precursor protein (Homo sapiens) (UniProt P05067); test: Inhibition of AChE-induced Amyloid beta (1 to 42 residues) (unknown origin) aggregation at Abeta(1 to 42) to compound concentration ratio of 10:5 to 10:20 uM incubated for 48 hrs by ThT fluorescence method
SH-SY5Y = test: Neuroprotective activity against human SH-SY5Y cells assessed as reduction of Abeta(1 to 42)-induced cytotoxicity upto 10 uM pretreated with Abeta42 for 24 hrs followed by incubation with compound for 72 hrs by MTT assay; assay type: functional, cell-based
HEK-293T [18] = test: Cytotoxicity against HEK293T cells assessed as reduction in cell viability at 0.3 to 30 uM measured after 44 hrs by WST-1 assay; assay type: toxicity, cell-based; settings: human, dose 0.3-30 µM
HEK-293T [19] = test: Cytotoxicity against HEK293T cells assessed as reduction in cell viability at 100 uM measured after 44 hrs by WST-1 assay; assay type: toxicity, cell-based; settings: human
Rattus norvegicus [20] = test: (§1) Antialzheimer activity against scopalamine-induced amnesia Wistar rat model assessed as inhibition of cognition impairment by measuring increase in spontaneous alterations at 2.5 to 10 mg/kg, po administered for 7 days and on day 7 administered with scopolamine at 30 mins before drug administration by Y-maze test; assay type: functional, organism-based; settings: dose 2.5-10 mg/kg, time 7.0 day
Rattus norvegicus [21] = test: as §1, with “at” for “at 2.5 to”; assay type: functional, organism-based; settings: time 7.0 day
[22] = biological target: T3, Acetylcholinesterase (Rattus norvegicus) (UniProt P37136); test: Ex vivo inhibition of AChE activity in brain of scopalamine-induced amnesia Wistar rat model at 2.5 to 10 mg/kg, po administered for 7 days and on day 7 administered with scopolamine at 30 mins before drug administration; assay type: functional, organism-based; settings: dose 2.5-10 mg/kg, time 7.0 day
T3 sequence (whole entry): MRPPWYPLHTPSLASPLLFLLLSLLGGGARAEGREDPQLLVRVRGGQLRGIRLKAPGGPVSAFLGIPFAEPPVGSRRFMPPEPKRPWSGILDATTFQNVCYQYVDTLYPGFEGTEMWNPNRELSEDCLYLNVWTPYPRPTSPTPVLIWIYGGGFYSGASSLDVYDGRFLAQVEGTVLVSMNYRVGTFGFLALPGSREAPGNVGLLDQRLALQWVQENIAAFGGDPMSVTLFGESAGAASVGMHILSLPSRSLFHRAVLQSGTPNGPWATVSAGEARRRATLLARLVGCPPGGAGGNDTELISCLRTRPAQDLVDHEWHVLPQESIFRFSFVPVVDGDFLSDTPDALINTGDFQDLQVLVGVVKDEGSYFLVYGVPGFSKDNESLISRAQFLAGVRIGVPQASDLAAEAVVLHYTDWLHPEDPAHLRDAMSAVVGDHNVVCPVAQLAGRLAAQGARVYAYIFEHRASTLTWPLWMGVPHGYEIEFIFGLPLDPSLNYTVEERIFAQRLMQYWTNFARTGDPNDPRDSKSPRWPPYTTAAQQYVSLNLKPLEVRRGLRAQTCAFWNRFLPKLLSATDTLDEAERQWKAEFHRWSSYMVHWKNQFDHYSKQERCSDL

[23] = biological target: T3, Acetylcholinesterase (Rattus norvegicus); test: Ex vivo inhibition of AChE activity in brain of scopalamine-induced amnesia Wistar rat model at 10 mg/kg, po administered for 7 days and on day 7 administered with scopolamine at 30 mins before drug administration; assay type: functional, organism-based; settings: time 7.0 day
Rattus norvegicus [24] = test: Antialzheimer activity against Abeta(1 to 42)-induced coginitive deficit Wistar rat model assessed as increase in time spent in the platform zone at 10 mg/kg, po administered for 7 days by Morris water maze test; assay type: functional, organism-based; settings: time 7.0 day
Rattus norvegicus [25] = test: Antialzheimer activity against Abeta(1 to 42)-induced coginitive deficit Wistar rat model assessed as increase in total number of platform crossings at 10 mg/kg, po administered for 7 days by Morris water maze test; assay type: functional, organism-based; settings: time 7.0 day

T1 sequence (P22303 whole entry): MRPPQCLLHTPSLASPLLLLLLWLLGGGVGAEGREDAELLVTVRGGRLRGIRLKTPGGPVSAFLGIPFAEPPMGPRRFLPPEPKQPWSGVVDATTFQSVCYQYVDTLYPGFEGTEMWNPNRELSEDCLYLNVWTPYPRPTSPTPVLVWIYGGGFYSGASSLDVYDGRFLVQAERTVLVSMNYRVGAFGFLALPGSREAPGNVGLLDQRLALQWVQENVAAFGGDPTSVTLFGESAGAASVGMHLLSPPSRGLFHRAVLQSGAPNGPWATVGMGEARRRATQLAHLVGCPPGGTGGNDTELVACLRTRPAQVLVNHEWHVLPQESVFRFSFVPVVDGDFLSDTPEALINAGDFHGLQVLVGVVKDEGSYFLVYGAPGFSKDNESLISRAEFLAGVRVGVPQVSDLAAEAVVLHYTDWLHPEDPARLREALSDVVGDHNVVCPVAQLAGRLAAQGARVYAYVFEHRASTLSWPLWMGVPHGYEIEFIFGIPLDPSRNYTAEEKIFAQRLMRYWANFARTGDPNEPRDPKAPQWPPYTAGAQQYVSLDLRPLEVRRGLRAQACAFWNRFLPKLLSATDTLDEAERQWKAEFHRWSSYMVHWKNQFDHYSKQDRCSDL

**Q.** Which results are given for `COc1ccc2nc3c(c(NCCCCCNC(=S)N[C@]45CC6C[C@@H](C[C@@H](C6)C4)C5)c2c1)CCCC3`?
**A.** IC50 (Acetylcholinesterase [1]): 470 nM; Ki [2]: 1800 nM

**Q.** For `Cc1ccc(-c2cn(Cc3ccc4ccccc4c3)nn2)cc1C(=O)NCCN1CCOCC1`, which IC50 (Acetylcholinesterase [3]) is on record?
**A.** Its IC50 is 7230 nM.

**Q.** With `Brc1ccc(Cn2cc(CNC3CCCCCC3)nn2)cc1` as the compound, how does the IC50 (Acetylcholinesterase [4]) read?
**A.** Its IC50 is 550 nM.

**Q.** What about the IC50 (Cholinesterase) of the same compound?
**A.** The IC50 was 17300 nM.

**Q.** And the Ratio IC50 [5]?
**A.** Its Ratio IC50 is 31.4.

**Q.** What about the IC50 (Acetylcholinesterase [1]) of the same compound?
**A.** Its IC50 is 621 nM.

**Q.** What about the IC50 [6] of the same compound?
**A.** The IC50 was 38200 nM.

**Q.** What about the Papp at 18 h, 25 ug/ml (in vitro) of the same compound?
**A.** Its Papp at 18 h, 25 ug/ml is 6.72 ×10⁻⁶ cm/s.

**Q.** For `Cc1ccc(Cn2cc(CNC3CCCCCC3)nn2)cc1`, which IC50 (Acetylcholinesterase [4]) is on record?
**A.** Its IC50 is 1220 nM.

**Q.** And the IC50 (Cholinesterase)?
**A.** Its IC50 is 19300 nM.

**Q.** And the Ratio IC50 [5]?
**A.** Its Ratio IC50 is 15.8.

**Q.** And the IC50 [6]?
**A.** The IC50 was 63600 nM.

**Q.** What about the Papp at 18 h, 25 ug/ml (in vitro) of the same compound?
**A.** Its Papp at 18 h, 25 ug/ml is 7.35 ×10⁻⁶ cm/s.

**Q.** Which IC50 (Acetylcholinesterase [4]) does the source give for `Cc1ccc(Cn2cc(CNC34CC5CC(CC(C5)C3)C4)nn2)cc1` here?
**A.** Its IC50 is 340 nM.

**Q.** And the IC50 (Cholinesterase)?
**A.** Its IC50 is 6040 nM.

**Q.** What about the Ratio IC50 [5] of the same compound?
**A.** The Ratio IC50 was 17.8.

**Q.** And the IC50 [6]?
**A.** The IC50 was 197000 nM.

**Q.** And the Papp at 18 h, 25 ug/ml (in vitro)?
**A.** The Papp at 18 h, 25 ug/ml was 7.48 ×10⁻⁶ cm/s.

**Q.** Which IC50 [2] does the source give for `c1ccc(CNC23OC4C5C6CC(C7C6C4C72)C53)cc1` (configuration not stated) here?
**A.** The IC50 was 2980 nM.

**Q.** Which results are given for `CC(C)c1ccc(Cn2cc(CNC34CC5CC(CC(C5)C3)C4)nn2)cc1`?
**A.** IC50 (Acetylcholinesterase [4]): 799 nM; IC50 (Cholinesterase): 7830 nM; Ratio IC50 [5]: 9.79; IC50 [6]: 79400 nM; Papp at 18 h, 25 ug/ml (in vitro): 7.63 ×10⁻⁶ cm/s

**Q.** With `CC12CC3CC(C)(C1)CC(N)(C3)C2` [MEMANTINE] as the compound, how does the IC50 [6] read?
**A.** Its IC50 is 778 nM.

**Q.** And the IC50 [7]?
**A.** Its IC50 is 3470 nM.

**Q.** What about the IC50 [8] of the same compound?
**A.** Its IC50 is 3390 nM.

**Q.** What about the IC50 [9] of the same compound?
**A.** The IC50 was 1270 nM.

**Q.** What about the IC50 [10] of the same compound?
**A.** The IC50 was 222 nM.

**Q.** And the IC50 [11]?
**A.** The IC50 was 318 nM.

**Q.** And the IC50 [12]?
**A.** The IC50 was 367 nM.

**Q.** And the IC50 [13]?
**A.** The IC50 was 592 nM.

**Q.** What about the Activity (HEK-293T [14]) of the same compound?
**A.** The Activity was “Toxic”.

**Q.** And the IC50 (Acetylcholinesterase [3])?
**A.** The IC50 was 780 nM.

**Q.** And the Papp at 18 h, 25 ug/ml (in vitro)?
**A.** Its Papp at 18 h, 25 ug/ml is 6.84 ×10⁻⁶ cm/s.

**Q.** Which results are given for `O=[N+]([O-])c1ccc(Cn2cc(CNC34CC5CC(CC(C5)C3)C4)nn2)cc1`?
**A.** IC50 (Acetylcholinesterase [4]): 1610 nM; IC50 (Cholinesterase): 9540 nM; Ratio IC50 [5]: 5.93; IC50 [6]: 21800 nM; Papp at 18 h, 25 ug/ml (in vitro): 6.83 ×10⁻⁶ cm/s

**Q.** What does the source list for `Brc1ccc(Cn2cc(CNC34CC5CC(CC(C5)C3)C4)nn2)cc1`?
**A.** IC50 (Acetylcholinesterase [4]): 86 nM; IC50 (Cholinesterase): 2550 nM; Ratio IC50 [5]: 29.6; IC50 (Acetylcholinesterase [1]): 92 nM; Ki (Acetylcholinesterase [15]): 26 nM; IC50 [6]: 3880 nM; IC50 [7]: 47400 nM; IC50 [8]: 36500 nM; IC50 [9]: 3000 nM; IC50 [10]: 90200 nM; IC50 [11]: 45100 nM; IC50 [12]: 112000 nM; IC50 [13]: 99500 nM; inhibition [16]: Dose-Dependent Effect; inhibition [17]: Dose-Dependent Effect; Activity (SH-SY5Y): Active; Activity (HEK-293T [18]): Non-Toxic; Activity (HEK-293T [19]): Toxic; Activity (Rattus norvegicus [20]): Dose-Dependent Effect; Activity (Rattus norvegicus [21]): Active; inhibition [22]: Dose-Dependent Effect; inhibition [23]: Active; Activity (Rattus norvegicus [24]): Active; Activity (Rattus norvegicus [25]): Active; Papp at 18 h, 25 ug/ml (in vitro): 8.75 ×10⁻⁶ cm/s

**Q.** Which IC50 [2] does the source give for `F[C@]12CC3C[C@](NCCCCCNc4c5c(nc6cc(Cl)ccc46)CCCC5)(C[C@H](C1)c1ccccc13)C2` here?
**A.** Its IC50 is 900 nM.
